In patent publication US20250073355A1, “CD44-BINDING PEPTIDE REAGENTS AND METHODS” (THE REGENTS OF THE UNIVERSITY OF MICHIGAN, priority 2021, published 2025):

Assays:
[1] = tested on: orthotopic SK-Hep1 xenograft tumors; assay: Whole body fluorescence imaging of orthotopic human HCC xenograft tumors; conditions: peak uptake ([…]), intravenous, n=5 mice
Protocol: (§1) Human HCC xenograft tumors were implanted orthotopically in female nude athymic mice. First, ˜5×10^6 SK-Hep1 tumor cells were injected subcutaneously into the hind limb flank. Tumors were then monitored twice a week and allowed to grow to 1-2 cm in diameter for 10-30 days. A small horizontal incision was made below the sternum to expose the liver. The liver was incised with a sharp scalpel horizontally in parallel with the surface of the exposed liver. A piece of the subcutaneous tumor with dimensions of ˜1×1×1 mm^3 was implanted into the incision, and then the site was sealed with absorbable hemostatic material (surgical, Johnson & Johnson). The liver was returned to its original position after confirming hemostasis.

[2] = tested on: orthotopic human HCC xenograft tumors; assay: Intraoperative laparoscopic imaging of orthotopic human HCC xenograft tumors; type: in vivo; conditions: […] post-injection, n=8 mice
Protocol: A self-build imaging module was attached to standard surgical laparoscope (#49003 AA, HOPKINS II Straight Forward Telescope 0°, Karl Storz, El Segundo, CA, USA) to collect WL and NIR FL images. WL illumination (MCWHL5, Thorlabs, Newton, NJ, USA) and FL excitation source (λex=785 nm, #iBEAM-SMART-785-S, Toptica Photonics) were coupled into the laparoscope. WL and NIR FL images are collected, simultaneously, by a color CCD camera (#GX-FW-28S5C-C, Point Grey Research, Richmond, BC V6W 1 K7, Canada) and a NIR CCD camera (Orca R-2, Hamamatsu Photonics, Hamamatsu City, Shizuoka Pref., Japan) with a laser power of 1.2 mW, respectively.
After completion of imaging, the mice were euthanized, and the livers were resected. A human specific anti-cytokeratin was stained on tumor sections by IHC to further confirm the implanted human derived HCC tumors, FIG. 16H. Overexpression of CD44 was confirmed by IHC and IF, FIG. 161,J. Representative histology (H&E) of the tumor is shown, FIG. 16K.

[3] = tested on: orthotopic human HCC xenograft tumors (SK-Hep1); assay: Photoacoustic imaging of orthotopic human HCC xenograft tumors
Protocol: as §1
IRDye800-labeled target and control peptides (300 μM in 200 μL PBS) were intravenously injected in mice bearing orthotopical SK-Hep1 tumors. An unlabeled peptide (1.5 mM, 100 μL) was injected 30 min prior to the labeled peptide to compete for binding. ICG (2.46 mg/kg) was injected intravenously as a control. Three-dimensional (3D) images were acquired from 0 to 48 h post injection and reconstructed using PAI tomography system (Nexus 128, Endra) using Iex=774 nm excitation. The photoacoustic signal intensity was measured from the two-dimensional (2D) maximum intensity projection (MIP) images, and the pre-injection images were used for background.
The photoacoustic images were collected to evaluate the time course for peptide uptake, FIG. 14A. […] Indocyanine green (ICG) was also administered (2.46 mg/kg) for comparison.

CC1(C)C(/C=C/C=C/C=C/C=C2\N(CCCCS(=O)(=O)O)c3ccc4ccccc4c3C2(C)C)=[N+](CCCCS(=O)(=O)[O-])c2ccc3ccccc3c21 [ICG, Indocyanine green]
T/B ratio, whole body fluorescence imaging (mean±SD) [1]: 0.46±0.03
T/B ratio, laparoscopic fluorescence imaging (mean±SD) [2]: 0.87±0.2
T/B ratio, photoacoustic imaging (mean±SD) ([3]; […] post-injection, intravenous, n=5 mice): 1.39±0.13
time of peak intensity (uptake) in tumor, photoacoustic ([3]; female, nude athymic, mouse, in vivo, iv): > 24 h
